Values quoted from earlier work, collected in patent publication US20200129499A1, “COMBINATION OF TASQUINIMOD OR A PHARMACEUTICALLY ACCEPTABLE SALT THEREOF AND A PD-1 AND/OR PD-L1 INHIBITOR, FOR USE AS A MEDICAMENT” (ACTIVE BIOTECH AB, priority 2015, published 2020).

System: metastatic bladder cancer
Conditions: phase 1a study, cited from earlier work

For “atezolizumab: anti-PD-L1 human IgG1 antibody (Roche)”, the “people alive at 1 year” value (people with the highest levels of PD-L1 expression) is listed as 57% and the “Complete responses (CRs)” value (metastatic bladder cancer) is listed as 20%.
